The test is described as follows: Expected change in fat mass, muscle mass and lean-to-fat mass ratio in subjects following a training regimen (FIGS. 3, 4A-4C). Type of test: in vivo. To be noted: FIG. 4A, set period of time (e.g., 1-3 months).

Experimental findings from patent US12186297B2, “Compositions and methods for increasing lean-to-fat mass ratio” (AXCESS GLOBAL SCIENCES, LLC, priority 2020, dated 2025) are described below.

Source text: FIG. 4A illustrates expected change in fat mass over a set period of time (e.g., 1-3 months) for subjects following a training regimen and given different treatments of HMB only (HMB), BHB only (BHB), and a combination of the same amounts of HMB and BHB (HMB+BHB).
FIG. 4B illustrates expected change in muscle mass over a set period of time (e.g., 1-3 months) for subjects following a training regimen and given different treatments of HMB only (HMB), BHB only (BHB), and a combination of the same amounts of HMB and BHB (HMB+BHB).

On to `CC(C)(O)CC(=O)O` [HMB, beta-hydroxy-beta-methylbutyrate], for which the “expected change in fat mass” value was “not expected to provide fat loss to any significant degree by itself”.
